Data taken from publication PMC10303900, “Discovery of a New Chalcone-Trimethoxycinnamide Hybrid with Antimitotic Effect: Design, Synthesis, and Structure—Activity Relationship Studies” (Pharmaceuticals, 2023).
Where two headings read alike, the source gives them in different places.

Tests used:
MCF-7 = test: SRB growth inhibition assay, breast adenocarcinoma cells; assay type: cell-based; settings: Homo sapiens, MCF7, 48 h
Experimental: (§1) A sulforhodamine B (SRB) assay was performed to evaluate the in vitro growth inhibitory activity of all synthesized hybrids, as well as intermediates in the human tumor cell lines of melanoma (A375-C5), breast adenocarcinoma (MCF-7), and colorectal carcinoma (HCT116), as well as on the non-tumor Human Pulmonary Alveolar Epithelial cell line (HPAEpiC). The concentration inducing 50% cell growth inhibition (GI50), was calculated. […] The overall results prompt us to further investigate the mechanism behind the cytotoxic activities of compounds 6, 7, and 13 in colorectal tumor cells. Moreover, in silico studies were performed, aiming to screen for drug-likeness.
(§2) A375-C5 (melanoma) and MCF-7 (breast adenocarcinoma) cell lines were obtained from the European Collection of Cell Culture, UK, and were grown in RPMI-1640 medium (Roswell Park Memorial Institute, Biochrom, Cambridge, UK) with 5% inactivated FBS (fetal bovine serum, Biochrom). HCT-116 (colon adenocarcinoma) cells were grown in DMEM medium (Dulbecco’s Modified Eagle’s, Biochrom) with 5% inactivated FBS. The non-tumor human pulmonary alveolar epithelial cells (HPAEpiC) were obtained from ScienCell Research Laboratories and grown in DMEM medium supplemented with 10% FBS and 1% non-essential amino acids (Sigma-Aldrich Co., Saint Louis, MO, USA). All cell lines were maintained in a humidified incubator (Hera Cell, Heraeus, Hanau, Germany) at 37 °C and with 5% CO2, and cell viability was regularly monitored using the exclusion trypan blue dye.
(§3) A total of 5.0 × 10^4 A375-C5, MCF-7, and HCT-116 cells, or 6.0 × 10^4 HPAEpiC cells were seeded in 96-well plates and incubated at 37 °C and 5% CO2 to allow for cell attachment. After 24 h, cells were treated with two-fold serial dilutions of test compounds (0–150 µM), or with DMSO as the compound solvent. In parallel, cells in a time-zero (T0) plate, without treatment, were fixed with 50% (m/v) trichloroacetic acid (TCA, Merck Millipore, Darmstadt, Germany), for 1 h at 4 °C, and then washed with distilled water and left to dry. Forty-eight hours after compound treatment, cells were fixed with 50% TCA and stained with SRB (Sigma-Aldrich Co., Ltd., Gillingham, UK) for 30 min at room temperature, followed by 5 rounds of washing with 1% (v/v) acetic acid (Merck Milli-pore, Darmstadt, Germany). SRB–protein complexes were then solubilized with […] Tris buffer (Sigma-Aldrich Co., Ltd., Gillingham, UK) for 30 min, and the absorbance was measured at 515 nm in a microplate reader (Biotek Synergy 2, BioTek Instruments, Inc., Winooski, VT, USA). A dose-response curve was obtained for each cell line, and the concentration that caused 50% cell growth inhibition (GI50) was calculated.

HPAEpiC = test: SRB growth inhibition assay, non-tumor pulmonary alveolar epithelial cells; assay type: cell-based; settings: Homo sapiens, Epithelial cell, 48 h
Experimental: as §1, §2, §3

A375-C5 = test: Sulforhodamine B (SRB) growth inhibition assay, melanoma cells; assay type: cell-based; settings: Homo sapiens, 48 h
Experimental: as §1, §2, §3

HCT116 (HCT116 p53+/+) = test: SRB growth inhibition assay, colorectal carcinoma cells; assay type: cell-based; settings: Homo sapiens, HCT-116
Experimental: as §1, §2, §3

[1] = tested on: A375-C5, MCF-7 and HCT116 cell lines; test: SRB growth inhibition, range over the tumor cell lines of Table 1; assay type: cell-based; settings: Homo sapiens; SAR discussion, values of Table 1
Experimental: Considering the antiproliferative effects on tumor cells of all the studied compounds (Table 1), some SAR considerations may be undertaken (Figure 2). […] Nevertheless, this effect is not observed for the flavone derivatives 15 and 16. […] Additionally, with the screening of the synthetic intermediates, some conclusions can also be inferred (Figure 2).
as §3

[2] = SRB, 48 h, read-out: GI50 HCT116

Row | GI50 (MCF-7) [µM] | GI50 (A375-C5) [µM] | GI50 (HCT116 (HCT116 p53+/+); [2]) [µM] | GI50 (HCT116 (HCT116 p53+/+); Table 2, 48 h, read-out: GI50 HCT116 p53+/+) [µM] | melting point [°C] | GI50 [1] [µM] | Structure (SMILES) | GI50 (HPAEpiC) [µM]
1 |  |  |  | 0.71 |  |  | COc1cc([C@@H]2c3cc4c(cc3[C@@H](O[C@@H]3O[C@@H]5CO[C@@H](C)O[C@H]5[C@H](O)[C@H]3O)[C@H]3COC(=O)[C@H]23)OCO4)cc(OC)c1O [Etoposide, reference compound] | 
2 | > 75 | > 75 | > 75 |  | 198 to 199 |  | CCCc1c(OCCNC(=O)/C=C/c2cc(OC)c(OC)c(OC)c2)ccc2c(=O)cc(-c3cc(OC)c(OC)c(OC)c3)oc12 [Compound 15, (E)-N-(2-((4-oxo-8-propyl-2-(3,4,5-trimethoxyphenyl)-4H-chromen-7-yl)oxy)ethyl)-3-(3,4,5-trimethoxyphenyl)acrylamide] | > 75
3 | > 75 | > 75 | 28.6 ± 5.05 |  | 196 to 199 |  | CCCc1c(OCCNC(=O)c2cc(OC)c(OC)c(OC)c2)ccc2c(=O)cc(-c3cc(OC)c(OC)c(OC)c3)oc12 [Compound 16, 3,4,5-trimethoxy-N-(2-((4-oxo-8-propyl-2-(3,4,5-trimethoxyphenyl)-4H-chromen-7-yl)oxy)ethyl)benzamide] | > 75
4 | > 75 | > 75 | > 75 |  | 212 to 214 | > 75 | CCCc1c(OCC(=O)O)ccc(C(=O)/C=C/c2cc(OC)c(OC)c(OC)c2)c1OCC(=O)O [Compound 12, (E)-2,2’-((2-propyl-4-(3-(3,4,5-trimethoxyphenyl)acryloyl)-1,3-phenylene)bis(oxy))diacetic acid] | > 75
5 | > 75 | > 75 | > 75 |  | 191 to 193 |  | CCCc1c(OCCNC(=O)OC(C)(C)C)ccc2c(=O)cc(-c3cc(OC)c(OC)c(OC)c3)oc12 [Compound 14, tert-butyl (2-((4-oxo-8-propyl-2-(3,4,5-trimethoxyphenyl)-4H-chromen-7-yl)oxy)ethyl)carbamate] | > 75
6 | > 75 | > 75 | > 75 |  |  |  | CCCc1c(OCC(=O)O)ccc2c(=O)cc(-c3cc(OC)c(OC)c(OC)c3)oc12 [Compound 18, 2-((4-oxo-8-propyl-2-(3,4,5-trimethoxyphenyl)-4H-chromen-7-yl)oxy)acetic acid] | > 75
7 | > 75 | > 75 | 24.7 ± 3.04 |  | 195 to 197 |  | CCCc1c(OCC(=O)Nc2cc(OC)c(OC)c(OC)c2)ccc2c(=O)cc(-c3cc(OC)c(OC)c(OC)c3)oc12 [Compound 17, 2-((4-oxo-8-Propyl-2-(3,4,5-trimethoxyphenyl)-4H-chromen-7-yl)oxy)-N-(3,4,5-trimethoxyphenyl)acetamide] | > 75
8 | 58.3 ± 8.37 | 29.4 ± 1.05 | 26.9 ± 1.6 |  | 200 to 202 | 26.9 to 58.3 | CCCc1c(OCC(=O)O)ccc(C(=O)/C=C/c2cc(OC)c(OC)c(OC)c2)c1O [Compound 11, (E)-2-(3-hydroxy-2-propyl-4-(3-(3,4,5-trimethoxyphenyl)acryloyl)phenoxy)acetic acid] | > 75
9 | > 75 | > 75 | 13.5 ± 2.46 |  | 201 to 203 |  | CCCc1c(OCCNC(=O)c2cc(OC)c(OC)c(OC)c2)ccc(C(=O)/C=C/c2cc(OC)c(OC)c(OC)c2)c1O [Compound 8, (E)-N-(2-(3-hydroxy-2-propyl-4-(3-(3,4,5-trimethoxyphenyl)acryloyl)phenoxy)ethyl)-3,4,5-trimethoxybenzamide] | > 75

Row | Structure (SMILES) | GI50 (MCF-7) [µM] | GI50 (A375-C5) [µM] | GI50 (HCT116 (HCT116 p53+/+); [2]) [µM] | GI50 (HCT116 (HCT116 p53+/+); Table 2, 48 h, read-out: GI50 HCT116 p53+/+) [µM] | melting point [°C] | GI50 [1] [µM] | GI50 (HPAEpiC) [µM]
10 | COc1cccc2c1C(=O)c1c(O)c3c(c(O)c1C2=O)C[C@@](O)(C(=O)CO)C[C@@H]3O[C@H]1C[C@H](N)[C@H](O)[C@H](C)O1 [Doxorubicin, reference compound] | 0.083 ± 0.003 | 0.028 ± 0.002 | 0.085 ± 0.008 |  |  |  | 0.091 ± 0.013
